PubChem BioAssay AID328 (DTP/NCI, 2004)
Several values for one entry are separate records, joined by “and”; a condition that tells them apart may be missing. Equal values may be shown once. Inconclusive results and toxic doses are left out. How the source made its calls: active means survival T/C of 150% or more; inactive means T/C below 125% in these data.

System: BDF1 mice, P388 leukemia ip, median survival T/C
Assay: NCI In Vivo Anticancer Drug Screen. Data for tumor model P388 Leukemia (intraperitoneal) in B6D2F1 (BDF1) mice
Details: endpoint: median survival time, higher = longer survival
In short: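 Vehicle-dosed animals serve as the reference; survival of compound-dosed, tumour-implanted mice is divided by it.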

Measured: T/C

COc1ccccc1/C=C(/C)[N+](=O)[O-]
inactive: dose: 10.0 mg/kg/injection, schedule: Q01DX010 (ip), vehicle: steriod suspending solution 90 % of control | dose: 14.0 mg/kg/injection, schedule: Q01DX010 (ip), vehicle: steriod suspending solution 110 % of control | dose: 22.0 mg/kg/injection, schedule: Q01DX010 (ip), vehicle: steriod suspending solution 120 % of control | dose: 33.0 mg/kg/injection, schedule: Q01DX010 (ip), vehicle: steriod suspending solution 120 % of control | dose: 50.0 mg/kg/injection, schedule: Q01DX010 (ip), vehicle: steriod suspending solution 120 % of control | dose: 70.0 mg/kg/injection, schedule: Q01DX010 (ip), vehicle: steriod suspending solution 110 % of control | dose: 75.0 mg/kg/injection, schedule: Q01DX010 (ip), vehicle: carboxymethylcellulose (CMC) 95 % of control
active: dose: 33.0 mg/kg/injection, schedule: Q01DX010 (ip), vehicle: carboxymethylcellulose (CMC) 175 % of control

N=C(N)c1ccc(OCCCOc2ccc(C(=N)N)cc2Br)c(Br)c1
inactive: dose: 2.2 mg/kg/injection, schedule: Q01DX009 (ip), vehicle: saline 100 % of control | dose: 3.3 mg/kg/injection, schedule: Q01DX009 (ip), vehicle: saline 118 % of control | dose: 5.0 mg/kg/injection, schedule: Q01DX009 (ip), vehicle: saline 118 % of control | dose: 25.0 mg/kg/injection, schedule: Q01DX009 (ip), vehicle: saline sonified 122 % of control

COc1cc2c(cc1OC)[C@H]1CNC[C@H]1[C@@H](c1ccccc1)C2
inactive: dose: 95.0 mg/kg/injection, schedule: Q01DX001 (ip), vehicle: Klucel (hydroxypropylcellulose) (HPC) 100 % of control | dose: 100.0 mg/kg/injection, schedule: Q01DX001 (ip), vehicle: Klucel (hydroxypropylcellulose) (HPC) 100 % of control and 110 % of control | dose: 135.0 mg/kg/injection, schedule: Q01DX001 (ip), vehicle: Klucel (hydroxypropylcellulose) (HPC) 104 % of control | dose: 200.0 mg/kg/injection, schedule: Q01DX001 (ip), vehicle: Klucel (hydroxypropylcellulose) (HPC) 95 % of control and 104 % of control | dose: 300.0 mg/kg/injection, schedule: Q01DX001 (ip), vehicle: Klucel (hydroxypropylcellulose) (HPC) 90 % of control

CCCC(C)C(C)CC (stereo unspecified)
inactive: dose: 6.25 mg/kg/injection, schedule: Q01DX001 (ip), vehicle: saline with Tween-80 91 % of control | dose: 12.5 mg/kg/injection, schedule: Q01DX001 (ip), vehicle: saline with Tween-80 104 % of control | dose: 25.0 mg/kg/injection, schedule: Q01DX001 (ip), vehicle: saline with Tween-80 116 % of control

CC1=CC(=O)[C@@H](O)[C@]2(C)[C@H]3[C@@]4(O)OC[C@]35[C@H]([C@@H](C)[C@H]4O)[C@@H](OC(=O)c3ccccc3)C(=O)O[C@@H]5C[C@@H]12
inactive: dose: 0.03 mg/kg/injection, schedule: Q01DX009 (ip), vehicle: saline with Tween-80 121 % of control | dose: 0.06 mg/kg/injection, schedule: Q01DX009 (ip), vehicle: saline with Tween-80 118 % of control | dose: 0.12 mg/kg/injection, schedule: Q01DX009 (ip), vehicle: saline with Tween-80 122 % of control

NC(N)=N/N=C/c1cccc2ccccc12
inactive: dose: 6.25 mg/kg/injection, schedule: Q01DX009 (ip), vehicle: saline with Tween-80 100 % of control | dose: 12.5 mg/kg/injection, schedule: Q01DX009 (ip), vehicle: saline with Tween-80 108 % of control | dose: 25.0 mg/kg/injection, schedule: Q01DX009 (ip), vehicle: saline with Tween-80 108 % of control

c1ccc2c(c1)Sc1cnccc1N2CC1CO1 (stereo unspecified)
inactive: dose: 100.0 mg/kg/injection, schedule: Q04DX003 (ip), vehicle: saline 104 % of control | dose: 200.0 mg/kg/injection, schedule: Q04DX003 (ip), vehicle: saline 90 % of control | dose: 400.0 mg/kg/injection, schedule: Q04DX003 (ip), vehicle: saline 95 % of control

CCO/C=C1\SC(=S)N(c2ccc(C(=O)O)cc2)C1=O
inactive: dose: 11.0 mg/kg/injection, schedule: Q01DX009 (ip), vehicle: saline 104 % of control | dose: 25.0 mg/kg/injection, schedule: Q01DX009 (ip), vehicle: saline 122 % of control | dose: 37.5 mg/kg/injection, schedule: Q01DX009 (ip), vehicle: saline 100 % of control | dose: 100.0 mg/kg/injection, schedule: Q01DX009 (ip), vehicle: saline with Tween-80 116 % of control

Nc1nc2ncc(CNc3ccc(C(=O)NC(CCC(=O)O)C(=O)O)cn3)nc2c(=O)[nH]1 (stereo unspecified)
inactive: dose: 37.5 mg/kg/injection, schedule: Q01DX009 (ip), vehicle: saline with Tween-80 92 % of control | dose: 62.5 mg/kg/injection, schedule: Q01DX009 (ip), vehicle: saline with Tween-80 92 % of control | dose: 75.0 mg/kg/injection, schedule: Q01DX009 (ip), vehicle: saline with Tween-80 107 % of control
